Data as given in ChEMBL document CHEMBL6109146, “Discovery of New Pyrazolone Carbothioamide Derivatives as Potent Antifungal Agents for the Treatment of Candidiasis and Cryptococcosis” (J Med Chem, 2025).
The source made the active and inactive calls. The calls are words filed in the database; no cut-off is given here.

Legend:
Nakaseomyces glabratus [1] = assay: Fungicidal activity against Candida glabrata 0161 at 32 microg/ml incubated for 48 hrs by time-kill kinetics analysis; type: functional, organism-based; conditions: dose 32.0 µg/ml
Cryptococcus neoformans [2] = assay: Inhibition of biofilm formation in Cryptococcus neoformans H99 at 32 microg/ml incubated for 24 hrs by XTT reagent based assay relative to control; type: functional
Nakaseomyces glabratus [3] = assay: Inhibition of matured biofilm in Candida glabrata 0161 at 2 to 32 microg/ml incubated for 24 hrs by XTT reagent based assay; type: functional, organism-based; conditions: dose 2-32 µg/ml
Cryptococcus neoformans [4] = assay: Inhibition of matured biofilm in Cryptococcus neoformans H99 at 2 to 32 microg/ml incubated for 24 hrs by XTT reagent based assay; type: functional, organism-based; conditions: dose 2-32 µg/ml
Cryptococcus neoformans [5] = assay: Inhibition of capsule formation in Cryptococcus neoformans H99 at 32 microg/ml incubated for 24 hrs by light microscopic analysis; type: functional, organism-based; conditions: dose 32.0 µg/ml
Cryptococcus neoformans [6] = assay: Inhibition of urease production in Cryptococcus neoformans H99 at 0.031 to 1 microg/ml by photographic analysis relative to control; type: functional; conditions: dose 0.031-1 µg/ml
Cryptococcus neoformans [7] = assay: Inhibition of melanin production in Cryptococcus neoformans H99 at 0.031 to 1 microg/ml by photographic analysis relative to control; type: functional, organism-based; conditions: dose 0.031-1 µg/ml
Cryptococcus neoformans [8] = assay: Induction of morphological changes in Cryptococcus neoformans H99 assessed as cell wall damage at 4 microg/ml incubated for 8 hrs by transmission electron microscopic analysis; type: functional, organism-based; conditions: dose 4.0 µg/ml
Cryptococcus neoformans [9] = assay: Induction of morphological changes in Cryptococcus neoformans H99 assessed as nuclei damage at 4 microg/ml incubated for 8 hrs by transmission electron microscopic analysis; type: functional, organism-based; conditions: dose 4.0 µg/ml
Cryptococcus neoformans [10] = assay: Induction of morphological changes in Cryptococcus neoformans H99 assessed as organelle damage at 4 microg/ml incubated for 8 hrs by transmission electron microscopic analysis; type: functional, organism-based; conditions: dose 4.0 µg/ml
Cryptococcus neoformans [11] = assay: Induction of ROS accumulation in Cryptococcus neoformans H99 assessed as increase in intracellular ROS level by measuring intense green fluorescence at 4 microg/ml incubated for 24 hrs by DCFH-DA probe based fluorescence microscopic analysis; type: functional, organism-based; conditions: dose 4.0 µg/ml
Cryptococcus neoformans [12] = assay: Induction of oxidative damage in Cryptococcus neoformans H99 assessed as increase in MDA level at 4 microg/ml incubated for 24 hrs relative to control; type: functional; conditions: dose 4.0 µg/ml
Cryptococcus neoformans [13] = assay: Effect on intracellular free iron ions level in Cryptococcus neoformans H99 at 4 microg/ml incubated for 24 hrs by absorbance based analysis; type: functional, cell-based; conditions: dose 4.0 µg/ml
Cryptococcus neoformans [14] = assay: Antifungal activity against Cryptococcus neoformans H99 assessed as inhibition of fungal growth in presence of 10% serum containing transferrin-bound ferric iron and free iron; type: functional
Cryptococcus neoformans [15] = assay: Antifungal activity against Cryptococcus neoformans H99 assessed as inhibition of fungal growth in presence of Fe(II) ions; type: functional
Cryptococcus neoformans [16] = assay: Antifungal activity against Cryptococcus neoformans H99 assessed as inhibition of fungal growth in presence of Fe(III) ions; type: functional
Cryptococcus neoformans [17] = assay: (§1) Antifungal activity against Cryptococcus neoformans H99 infected in cryptococcosis female ICR mouse model assessed as reduction in pyknosis in neuronal nuclei by measuring reduction in staining at 20 mg/kg, ip pre-infected with fungi for 3 hrs followed by compound administration and measured after 5 days by H and E staining based analysis; type: functional, organism-based; conditions: time 5.0 day
Cryptococcus neoformans [18] = assay: as §1, with “cysts formation” for “pyknosis”, “brain cortex” for “neuronal nuclei by measuring reduction in staining”; type: functional, organism-based; conditions: time 5.0 day
Candida albicans [19] = assay: Antifungal activity against Candida albicans SC5314 assessed as inhibition of fungal growth incubated for 48 to 72 hrs by microplate reader analysis; type: functional, organism-based; conditions: time 48-72 hrs
Candida albicans [20] = assay: Antifungal activity against Candida albicans 103 assessed as inhibition of fungal growth incubated for 48 to 72 hrs by microplate reader analysis; type: functional, organism-based; conditions: time 48-72 hrs
Candida albicans [21] = assay: Antifungal activity against Candida albicans 9296 assessed as inhibition of fungal growth incubated for 48 to 72 hrs by microplate reader analysis; type: functional, organism-based; conditions: time 48-72 hrs
[Candida] auris [22] = Antifungal activity against Candida auris 15448 assessed as inhibition of fungal growth incubated for 48 to 72 hrs by microplate reader analysis; type: functional, organism-based; conditions: Candidozyma auris, time 48-72 hrs
[Candida] auris [23] = Antifungal activity against Candida auris 0029 assessed as inhibition of fungal growth incubated for 48 to 72 hrs by microplate reader analysis; type: functional, organism-based; conditions: Candidozyma auris, time 48-72 hrs
[Candida] auris [24] = Antifungal activity against Candida auris 0030 assessed as inhibition of fungal growth incubated for 48 to 72 hrs by microplate reader analysis; type: functional, organism-based; conditions: Candidozyma auris, time 48-72 hrs
Cryptococcus neoformans [25] = assay: Antifungal activity against Cryptococcus neoformans H99 assessed as inhibition of fungal growth incubated for 48 to 72 hrs by microplate reader analysis; type: functional; conditions: time 48-72 hrs
Cryptococcus neoformans [26] = assay: Antifungal activity against Cryptococcus neoformans 011409 assessed as inhibition of fungal growth incubated for 48 to 72 hrs by microplate reader analysis; type: functional; conditions: time 48-72 hrs
Cryptococcus neoformans [27] = assay: Antifungal activity against Cryptococcus neoformans HN-68 assessed as inhibition of fungal growth incubated for 48 to 72 hrs by microplate reader analysis; type: functional; conditions: time 48-72 hrs
Cryptococcus gattii = assay: Antifungal activity against Cryptococcus gattii 01063P assessed as inhibition of fungal growth incubated for 48 to 72 hrs by microplate reader analysis; type: functional; conditions: time 48-72 hrs
Nakaseomyces glabratus [28] = assay: Antifungal activity against Candida glabrata 8535 assessed as inhibition of fungal growth incubated for 48 to 72 hrs by microplate reader analysis; type: functional; conditions: time 48-72 hrs
Nakaseomyces glabratus [29] = assay: Antifungal activity against Candida glabrata 9256 assessed as inhibition of fungal growth incubated for 48 to 72 hrs by microplate reader analysis; type: functional; conditions: time 48-72 hrs
Nakaseomyces glabratus [30] = assay: Antifungal activity against Candida glabrata 0161 assessed as inhibition of fungal growth incubated for 48 to 72 hrs by microplate reader analysis; type: functional; conditions: time 48-72 hrs

Row | SMILES | Activity (Candida albicans [19]) | Activity (Candida albicans [20]) | Activity (Candida albicans [21]) | Activity ([Candida] auris [22]) | Activity ([Candida] auris [23]) | Activity ([Candida] auris [24]) | Activity (Cryptococcus neoformans [25]) | Activity (Cryptococcus neoformans [26]) | Activity (Cryptococcus neoformans [27]) | Activity (Cryptococcus gattii) | Activity (Nakaseomyces glabratus [28]) | Activity (Nakaseomyces glabratus [29]) | Activity (Nakaseomyces glabratus [30]) | other results
1 | OC(Cn1cncn1)(Cn1cncn1)c1ccc(F)cc1F [FLUCONAZOLE] | – | – | – | – | – | – | – | – | – | – | – | – | – | Activity (Nakaseomyces glabratus [1]): inactive; inhibition at 32 µg/mL (Cryptococcus neoformans [2]): 17%; inhibition (Nakaseomyces glabratus [3]): Moderate_effect; inhibition (Cryptococcus neoformans [4]): inactive; inhibition (Cryptococcus neoformans [5]): inactive; inhibition (Cryptococcus neoformans [6]): inactive; inhibition (Cryptococcus neoformans [7]): inactive; Activity (Cryptococcus neoformans [8]): inactive; Activity (Cryptococcus neoformans [9]): inactive; Activity (Cryptococcus neoformans [10]): inactive; Activity (Cryptococcus neoformans [11]): inactive; Activity (Cryptococcus neoformans [12]): inactive; Activity (Cryptococcus neoformans [13]): inactive; MIC (Cryptococcus neoformans [14]): 2 µg/mL; MIC (Cryptococcus neoformans [15]): 2 µg/mL; MIC (Cryptococcus neoformans [16]): 2 µg/mL; Activity (Cryptococcus neoformans [17]): inactive; Activity (Cryptococcus neoformans [18]): inactive
2 | CCCCCCCCc1ccc(NC(=S)n2[nH]c(N)cc2=O)cc1 | Active | Active | Active | Active | Active | Active | Active | Active | Active | Active | Active | Active | Active | –
3 | CCCCc1ccc(NC(=S)n2[nH]c(N)cc2=O)cc1 | Active | Active | Active | Active | Active | Active | Active | Active | Active | Active | Active | Active | Active | –
4 | CCCCCCc1ccc(NC(=S)n2[nH]c(N)cc2=O)cc1 | Active | Active | Active | Active | Active | Active | Active | Active | Active | Active | Active | Active | Active | –
5 | Nc1cc(=O)n(C(=S)Nc2ccc(C(=O)c3ccccc3)cc2)[nH]1 | inactive | inactive | inactive | inactive | inactive | inactive | Active | Active | Active | Active | Active | Active | Active | –
6 | CS(=O)(=O)c1ccc(NC(=S)n2[nH]c(N)cc2=O)cc1 | Not active; Compound Demonstrated Reduced Activity Compared To Lead Compound 1 | Not active; Compound Demonstrated Reduced Activity Compared To Lead Compound 1 | Not active; Compound Demonstrated Reduced Activity Compared To Lead Compound 1 | Not active; Compound Demonstrated Reduced Activity Compared To Lead Compound 1 | Not active; Compound Demonstrated Reduced Activity Compared To Lead Compound 1 | Not active; Compound Demonstrated Reduced Activity Compared To Lead Compound 1 | Not active; Compound Demonstrated Reduced Activity Compared To Lead Compound 1 | Not active; Compound Demonstrated Reduced Activity Compared To Lead Compound 1 | Not active; Compound Demonstrated Reduced Activity Compared To Lead Compound 1 | Not active; Compound Demonstrated Reduced Activity Compared To Lead Compound 1 | Active | Active | Active | –
